Results: ChEMBL document CHEMBL3217522, “New substituted aryl esters and aryl amides of 3,4-dihydro-2H-1,2,4-benzothiadiazine 1,1-dioxides as positive allosteric modulators of AMPA receptors” (Medchemcomm, 2011)

What was measured:
[1] = target: T1, Glutamate receptor ionotropic, AMPA (Rattus norvegicus) (UniProt P19491+P19492+P19493+P19490); test: Positive allosteric modulation of AMPA receptor in embryonic rat brain cells assessed as potentiation of membrane depolarization after 3 mins by fluorescence assay relative to AMPA; type: cell-based
[2] = target: T1, Glutamate receptor ionotropic, AMPA (Rattus norvegicus); test: Positive allosteric modulation of AMPA receptor in embryonic rat brain cells assessed as concentration required for 2-fold increase in AMPA-induced membrane depolarization after 3 mins by fluorescence assay; type: cell-based
[3] = target: Glutamate receptor ionotropic, AMPA (Rattus norvegicus, UniProt P19490+P19491+P19492+P19493); test: Positive allosteric modulation of AMPA receptor in embryonic rat brain cells assessed as potentiation of AMPA-induced membrane depolarization after 3 mins by fluorescence assay; type: cell-based
[4] = Stability of the compound in PBS at pH 7.4 at 1 mM after 24 hrs at 25 degC HPLC analysis; type: physicochemical; details: buffer, pH 7.4, 24 h, 1000 µM
[5] = Stability of the compound in PBS at pH 1 at 1 mM after 24 hrs at 25 degC HPLC analysis; type: physicochemical; details: buffer, pH 1, 24 h, 1000 µM

| Structure (SMILES) | max activation [1] [%] | Activity [2] [µM] | EC50 [3] [µM] | Stability [4] | Stability [5] |
| --- | --- | --- | --- | --- | --- |
| CN1CNS(=O)(=O)c2cc(C(=O)Nc3ccccc3)ccc21 | < 200 | > 100 | – | – | – |
| CCOc1ccccc1OC(=O)c1ccc2c(c1)S(=O)(=O)NCN2CC | > 270 | 21.6 | – | – | – |
| CCCc1ccc(OC(=O)c2ccc3c(c2)S(=O)(=O)NCN3CC)cc1 | < 200 | > 100 | – | – | – |
| CN1CNS(=O)(=O)c2cc(C(=O)Oc3ccccc3OCc3ccccc3)ccc21 | < 200 | > 100 | – | – | – |
| CCN1CNS(=O)(=O)c2cc(C(=O)Oc3ccccc3OC)ccc21 | 380 | 10.6 | – | – | – |
| CCN1CNS(=O)(=O)c2cc(C(=O)Oc3ccccc3C)ccc21 | 330 | 3.48 | 3.91 | – | – |
| CCCc1ccccc1OC(=O)c1ccc2c(c1)S(=O)(=O)NCN2CC | < 200 | > 100 | – | – | – |
| CCN1CNS(=O)(=O)c2cc(C(=O)Oc3cccc(OC)c3)ccc21 | 200 | > 35 | – | – | – |
| COc1ccccc1OC(=O)c1ccc2c(c1)S(=O)(=O)NCN2 | < 200 | > 100 | – | – | – |
| Cc1ccccc1OC(=O)c1ccc2c(c1)S(=O)(=O)NCN2C | 410 | 0.94 | 1.72 | – | – |
| CN1CNS(=O)(=O)c2cc(C(=O)Oc3ccccc3)ccc21 | 550 | 3.66 | 3.65 | Stable | Stable |
| CCN1CNS(=O)(=O)c2cc(C(=O)OCCc3ccccc3)ccc21 | < 200 | > 100 | – | – | – |
| Cc1cccc(OC(=O)c2ccc3c(c2)S(=O)(=O)NCN3C)c1 | < 200 | > 100 | – | – | – |
| CCc1ccccc1OC(=O)c1ccc2c(c1)S(=O)(=O)NCN2C | < 200 | > 100 | – | – | – |
| CCN1CNS(=O)(=O)c2cc(C(=O)Oc3ccc(C)cc3)ccc21 | < 200 | > 100 | – | – | – |
| COc1ccccc1OC(=O)c1ccc2c(c1)S(=O)(=O)NCN2C | 410 | 6.4 | 7.27 | – | – |
| CCN1CNS(=O)(=O)c2cc(C(=O)Oc3cccc(C)c3)ccc21 | < 200 | > 100 | – | – | – |
| CN1CNS(=O)(=O)c2cc(C(=O)N(C)c3ccccc3)ccc21 | < 200 | > 100 | – | – | – |
| CCN1CNS(=O)(=O)c2cc(C(=O)OCc3ccccc3)ccc21 | < 200 | > 100 | – | – | – |
| CCOc1ccccc1OC(=O)c1ccc2c(c1)S(=O)(=O)NCN2C | > 360 | 7.08 | – | – | – |
| CCN1CNS(=O)(=O)c2cc(C(=O)Oc3cccc(OCc4ccccc4)c3)ccc21 | < 200 | > 100 | – | – | – |
| CCN1CNS(=O)(=O)c2cc(C(=O)Oc3ccc(OC)cc3)ccc21 | < 200 | > 100 | – | – | – |
| CCN(C(=O)c1ccc2c(c1)S(=O)(=O)NCN2C)c1ccccc1 | < 200 | > 100 | – | – | – |
| CCN1CNS(=O)(=O)c2cc(C(=O)Nc3ccccc3)ccc21 | < 200 | > 100 | – | – | – |
| CCc1ccccc1OC(=O)c1ccc2c(c1)S(=O)(=O)NCN2CC | < 200 | > 100 | – | – | – |
| CCN1CNS(=O)(=O)c2cc(C(=O)Oc3ccccc3OCc3ccccc3)ccc21 | < 200 | > 100 | – | – | – |
